According to patent US20140051678A1, “INHIBITORS OF THE ACTIVITY OF COMPLEX III OF THE MITOCHONDRIAL ELECTRON TRANSPORT CHAIN AND USE THEREOF FOR TREATING DISEASES” (STEMERGIE BIOTECHNOLOGY SA, priority 2010, published 2014):
Read-outs that look alike come from different tables or passages of the source.

Key:
[1] = tested on: glioma-initiating cells (GICs); assay: Short term dose response on gliomaspheres, cell death by FACS after trypan blue incorporation; format: cell-based, human; details: 50 μM, 48 hrs
Experimental: Short term dose response of the compound of Example 4 was performed according to the method as described in the patent application PCT no PCTIB2010/052237 (WO 2010/134039).
Briefly, gliomaspheres were dissociated, counted and plated at 10 cells/μl in DMEM-F12, 2% B27, 1% peni/strep, EGF and bFGF at 1 ng/ml. Cells were then treated with various amount of the compound for 48 hrs and cell death was analysed by FACS after incorporation of trypan blue (1/1000).

HepG2 cells = assay: MTT cytotoxicity / mitochondrial toxicity assay, glucose vs galactose medium, HepG2; format: cell-based, Human; details: for AC50: Homo sapiens
Experimental: (§1) Human hepatocellular liver carcinoma cells (HepG2) or Human glioblastoma-astrocytoma, epithelial-like cells (U-87 MG) were plated on 96-well tissue culture treated polystyrene plates at 0.5×10^4 cells in 100 μL of Dulbecco's modified Eagle's medium containing either galactose or glucose supplemented with 10% foetal bovine serum and antibiotics per well. After 24 hr the cells are dosed with test compound at a range of concentrations and incubated for 72 nr. One hour prior to the end of the incubation period, the cells are loaded with MTT [yellow; 3-(4,5-dimethyl-2-thiazolyl)-2,5-diphenyl-2H-tetrazolium bromide], the plates are dried and re-solubilised using DMSO. The plates are then scanned using SpectraFluor Plus (TECAN).
(§2) To measure the relative sensitivity of HepG2 or U-87 MG cells grown in medium containing either galactose or glucose to the test compound.
(§3) Cytotoxicity was assessed using MTT. The assay provides a measurement of mitochondrial dehydrogenase activity and cell loss.
(§4) Cell Loss: A decrease can indicate a loss of cells indicating toxicity due to necrosis, apoptosis or a reduction in cellular proliferation.
(§5) Mitochondrial Activity: A decrease can also indicate an effect on mitochondrial function as mitochondrial dehydrogenases reduce the MTT [yellow; 3-(4,5-dimethyl-2-thiazolyl)-2,5-diphenyl-2H-tetrazolium bromide] to formazan. The formazan is detected in this assay (see assay protocol for details).
(§6) The AC50 is calculated from a four point logistic curve fit to determine percent survival of each test agent and control compound. The fold change is calculated from AC50 curve fit data by comparison with cells grown with glucose or galactose, A greater than 5-fold response in the presence of galactose indicates the compound is considered to be a mitochondrial toxicant.

U-87 MG cells = assay: MTT cytotoxicity / mitochondrial toxicity assay, glucose vs galactose medium, U-87 MG; format: cell-based, Human; details: for AC50: Homo sapiens
Experimental: as §1, §2, §3, §4, §5, §6

Structure (SMILES): O=CNc1cccc(C(=O)NC2CCCCCCCC2)c1O [Example 4, N-cyclononyl-3-formamido-2-hydroxybenzamide]
- fold increase cell death [1]: ≥ 1.2 fold
- Fold Change (AC50 glucose vs galactose) (HepG2 cells; HepG2, 72 h): 9.92
- Cell Loss - Galactose MEC (HepG2 cells; HepG2, galactose medium, 72 h, MTT): 4 µM
- Cell Loss - Glucose MEC (HepG2 cells; HepG2, glucose medium, 72 h, MTT): 10 µM
- Mitochondrial Toxicant (HepG2 cells; HepG2, greater than 5-fold response in galactose = mitochondrial toxicant): Yes
- AC50 (HepG2 cells; HepG2, galactose medium, 72 h, MTT, read-out: Cell Loss - Galactose AC50): 2.4 µM
- AC50 (HepG2 cells; HepG2, glucose medium, 72 h, MTT, read-out: Cell Loss - Glucose AC50): 23.8 µM
- Fold Change (AC50 glucose vs galactose) (U-87 MG cells; 72 h): >70.1
- AC50 (U-87 MG cells; galactose medium, 72 h, MTT, read-out: Cell Loss - Galactose AC50): 1410 nM
- AC50 (U-87 MG cells; glucose medium, 72 h, MTT, read-out: Cell Loss - Glucose AC50): > 100000 nM
- Cell Loss - Galactose MEC (U-87 MG cells; galactose medium, 72 h, MTT): 1 µM
- Cell Loss - Glucose MEC (U-87 MG cells; glucose medium, 72 h, MTT): >100 µM
- Mitochondrial Toxicant (U-87 MG cells; greater than 5-fold response in galactose = mitochondrial toxicant): Yes
